Reference: patent publication US12372533B2, “Identification of immunogenic mutant peptides using genomic, transcriptomic and proteomic information” (Genentech, Inc., priority 2014, dated 2025)
Where a SMILES comes first, the peptide text is derived from it.

Tests used:
Assay type in all cases: in vivo, mouse
wild type C57BL/6 mice = assay: Immunization of mice with long peptides plus adjuvant, CD8 T cell response by MHCI/peptide-specific dextramers; details: long peptides encoding the mutated epitopes plus adjuvant, day 0 and day 14, compared to adjuvant alone; FIG. 4A
MC-38 tumors = assay: Peptide-specific CD8 tumor-infiltrating cells (TILs) in MC-38 tumors, dextramer staining; details: for peptide-specific CD8 T cells in the tumor bed: FIG. 4B
From the text: (§1) The immunogenicity of these mutated peptides was confirmed in the context of the tumor by analyzing tumor-infiltrating cells (TILs).
C57BL/6 mice were implanted subcutaneously on the right flank with 1×10^5 MC-38 tumor cells. The whole tumor was isolated and digested with collagenase and DNAase to isolate TILs. TILs were stained with dextramers (as described above) followed by antibodies against CD45, Thy1.2, CD4, CD8 (BD Biosciences), PD-1 (eBiosciences) and TIM-3 (R&D Systems). Live/dead stain was used to gate on live cells.

TRAMP-C1 tumors = assay: Peptide-specific CD8 tumor-infiltrating cells in syngeneic TRAMP-C1 tumors
From the text: as §1

| Molecule | CD8 T cell response (wild type C57BL/6 mice) | peptide-specific CD8 T cells in the tumor bed (MC-38 tumors) | relative abundance of peptide-specific CD8 T cells among Reps1, Adpgk and Dpagt1 (MC-38 tumors) | Adpgk-specific CD8 T cells in tumor (TRAMP-C1 tumors) |
| --- | --- | --- | --- | --- |
| SIIVFNLL [Dpagt1, mutant peptide presented on MHCI (H-2Kb) in the MC-38 cell line] | weak CD8 T cells response | enriched in the tumor bed |  |  |
| ASMTNMELM [Adpgk, mutant peptide presented on MHCI (H-2Db) in the MC-38 cell line] | strong CD8 T cell responses | enriched in the tumor bed | most abundant of the three | no Adpgk-specific CD8 T cells were detected |
| CC(C)C[C@H](NC(=O)[C@@H](NC(=O)[C@@H](NC(=O)[C@H](CC(=O)O)NC(=O)[C@H](CC(N)=O)NC(=O)[C@H](C)NC(=O)[C@H](CC(C)C)NC(=O)[C@H](CCC(N)=O)NC(=O)[C@H](C)N)C(C)C)C(C)C)C(=O)O [Reps1, AQLANDVVL] (H-AQLANDVVL-OH; N-terminus and C-terminus assumed) | strong CD8 T cell responses | enriched in the tumor bed |  |  |
